Measurements reported in the supplement of paper PMC10307832.

Experiments:
Assay in all cases: relative viability (nuclei count vs DMSO), 5 days (fraction); higher = more cells survive
Entinostat + Pictilisib = compound: Nc1ccccc1NC(=O)c1ccc(CNC(=O)OCc2cccnc2)cc1 [Entinostat] + CS(=O)(=O)N1CCN(Cc2cc3nc(-c4cccc5[nH]ncc45)nc(N4CCOCC4)c3s2)CC1 [Pictilisib] (partner 1 µM)
In short: (§1)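 Lung cancer cell lines were pin-tool dosed in 1536-well plates on the day after seeding, with either a lone drug or a fixed anchor-drug dose plus five library-drug doses (not always all listed) in √10 steps. Nuclei were counted on 4× images after 5 days. Relative viability is the ratio of treated-well to vehicle-well nuclei counts, with each value a median of duplicate plates.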

[1] = compound: C1COCCN1C2=NC(=NC3=C2OC4=C3C=CC=N4)C5=CC(=CC=C5)NC(=O)C6=CN=C(C=C6)N + CS(=O)(=O)CCNCc1ccc(-c2ccc3ncnc(Nc4ccc(OCc5cccc(F)c5)c(Cl)c4)c3c2)o1 [Lapatinib] (partner 2 µM)
In short: as §1

[2] = compound: C1COCCN1C2=NC(=NC3=C2OC4=C3C=CC=N4)C5=CC(=CC=C5)NC(=O)C6=CN=C(C=C6)N + CCNC(=O)c1noc(-c2cc(C(C)C)c(O)cc2O)c1-c1ccc(CN2CCOCC2)cc1 [Luminespib] (partner 0.01 µM)
In short: as §1

[3] = compound: C1COCCN1C2=NC(=NC3=C2OC4=C3C=CC=N4)C5=CC(=CC=C5)NC(=O)C6=CN=C(C=C6)N + NC(=O)Nc1cc(-c2cccc(F)c2)sc1C(=O)N[C@H]1CCCNC1 [AZD7762] (partner 0.2 µM)
In short: as §1

Cell Line	relative viability (Entinostat + Pictilisib; first compound 0.02 µM)	relative viability (Entinostat + Pictilisib; first compound 0.06325 µM)	relative viability (Entinostat + Pictilisib; first compound 0.2 µM)	relative viability (Entinostat + Pictilisib; first compound 0.6325 µM)	relative viability (Entinostat + Pictilisib; first compound 2 µM)	relative viability ([1]; first compound 0.02 µM)	relative viability ([1]; first compound 0.06325 µM)	relative viability ([1]; first compound 0.2 µM)	relative viability ([1]; first compound 0.6325 µM)	relative viability ([1]; first compound 2 µM)	relative viability ([2]; first compound 0.02 µM)	relative viability ([2]; first compound 0.06325 µM)	relative viability ([2]; first compound 0.2 µM)	relative viability ([2]; first compound 0.6325 µM)	relative viability ([2]; first compound 2 µM)	relative viability ([3]; first compound 0.02 µM)	relative viability ([3]; first compound 0.06325 µM)	relative viability ([3]; first compound 0.2 µM)	relative viability ([3]; first compound 0.6325 µM)	relative viability ([3]; first compound 2 µM)
NCI-H2228	0.289	0.285	0.292	0.253	0.161	1.1	1.2	0.89	1.06	0.604	0.143	0.194	0.209	0.115	0.111	–	–	–	–	–
NCI-H2342	–	–	–	–	–	–	–	–	–	–	0.746	0.768	0.719	0.665	0.596	0.498	0.525	0.476	0.565	0.463
SK-LU-1	0.503	0.493	0.622	0.38	0.333	1.02	1.01	0.786	0.824	0.33	0.202	0.206	0.218	0.214	0.181	–	–	–	–	–
LCLC-103H	0.611	0.603	0.636	0.452	0.479	–	–	–	–	–	0.99	1.04	0.89	1.1	0.461	0.809	0.784	0.8	0.81	0.631
NCI-H1563	0.721	0.639	0.617	0.684	0.646	0.906	0.82	0.857	0.72	0.719	0.492	0.516	0.542	0.474	0.48	–	–	–	–	–
